From patent US7713994B2 (Wyeth LLC, priority 2005, dated 2010)
Read-outs that look alike come from different tables or passages of the source.

Experiments:
[1] = biological target: T1, cyclin D1/cdk 4 enzyme (Homo sapiens, UniProt P11802); assay: CDK4 ELISA kinase assay (phospho-Rb ser 795 detection); assay type: biochemical
T1 construct: made in house; host or cells: Sf9 insect cells, recombinant baculovirus
Method in brief: (§1)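 Wells were coated overnight with GST-Rb C-terminal fragment, then blocked. Compound (10 ug/ml final) and cyclin/CDK enzyme from baculovirus-infected Sf9 cells with 200 μM ATP reacted 1 h at 30° C. Ser795 phosphorylation was detected by ELISA at 450 nm.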

[2] = biological target: T2, cyclin E/CDK2 enzyme (Homo sapiens, UniProt P24941); assay: CDK2 ELISA kinase assay (phospho-Rb ser 795 detection); assay type: biochemical
T2 construct: made in house; host or cells: Sf9 insect cells, recombinant baculovirus
Method in brief: as §1

[3] = biological target: T3, cyclin B/CDK1 enzyme (Homo sapiens, UniProt P06493); assay: CDK1 ELISA kinase assay (phospho-Rb ser 795 detection); assay type: biochemical
T3 construct: purchased New England BioLabs; host or cells: Sf9 insect cells, recombinant baculovirus
Method in brief: as §1

[4] = system: BT474; assay: Cytotoxicity assay (SRB), BT474; assay type: cell-based
Method in brief: (§2)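 Cells were seeded overnight in RPMI 1640 with 5% FBS at 37 °C, 7% CO2 (12000/well BT474, 4000 HCT-116, 6000 LoVo, 6000 MCF-7), then exposed to compound dilutions for 3 days (6 days for BT474). Survival versus untreated controls was measured by TCA fixation and SRB staining at 540 nm.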

[5] = system: HCT-116; assay: Cytotoxicity assay (SRB), HCT-116; assay type: cell-based; details: Homo sapiens, HCT-116, 72 h, HCT116 cells, SRB, read-out: In Vitro Cellular Activity IC50 HCT116
Method in brief: as §2

[6] = system: LoVo; assay: Cytotoxicity assay (SRB), LoVo; assay type: cell-based; details: Homo sapiens, LoVo, 72 h, LoVo cells, SRB, read-out: In Vitro Cellular Activity IC50 LOVO
Method in brief: as §2

[7] = system: MCF-7; assay: Cytotoxicity assay (SRB), MCF-7; assay type: cell-based; details: Homo sapiens, MCF7, 72 h, MCF-7 cells, SRB, read-out: In Vitro Cellular Activity IC50 MCF-7
Method in brief: as §2

[8] = In Vitro Enzyme Assay, cyclin D1/cdk 4, read-out: CDK4 IC50
[9] = In Vitro Enzyme Assay, cyclin E/CDK2, read-out: CDK2 IC50
[10] = In Vitro Enzyme Assay, cyclin B/CDK1, read-out: CDK1 IC50
[11] = Homo sapiens, BT-474, 144 h, BT474 cells, 6 days, SRB; read-out: In Vitro Cellular Activity IC50 BT474
[12] = In Vitro Enzyme Assays, 200 μM ATP, read-out: CDK4 IC50
[13] = In Vitro Enzyme Assays, read-out: CDK2 IC50
[14] = In Vitro Enzyme Assays, read-out: CDK1 IC50
[15] = Homo sapiens, BT-474, 144 h, BT474 cells, SRB, 6 days; read-out: In Vitro Cellular Activity IC50 BT474

T1 sequence (P11802 whole entry, species assumed): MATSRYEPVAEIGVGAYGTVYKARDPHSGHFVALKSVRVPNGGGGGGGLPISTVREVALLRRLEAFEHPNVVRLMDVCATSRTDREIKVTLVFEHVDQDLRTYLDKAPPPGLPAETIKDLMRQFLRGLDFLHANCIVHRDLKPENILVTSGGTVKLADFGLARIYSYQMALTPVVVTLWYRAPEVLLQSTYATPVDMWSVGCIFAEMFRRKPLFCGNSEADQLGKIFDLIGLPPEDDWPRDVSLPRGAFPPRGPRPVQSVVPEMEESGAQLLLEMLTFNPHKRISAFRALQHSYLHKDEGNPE
T1 sequence (P24385 whole entry partner, species assumed): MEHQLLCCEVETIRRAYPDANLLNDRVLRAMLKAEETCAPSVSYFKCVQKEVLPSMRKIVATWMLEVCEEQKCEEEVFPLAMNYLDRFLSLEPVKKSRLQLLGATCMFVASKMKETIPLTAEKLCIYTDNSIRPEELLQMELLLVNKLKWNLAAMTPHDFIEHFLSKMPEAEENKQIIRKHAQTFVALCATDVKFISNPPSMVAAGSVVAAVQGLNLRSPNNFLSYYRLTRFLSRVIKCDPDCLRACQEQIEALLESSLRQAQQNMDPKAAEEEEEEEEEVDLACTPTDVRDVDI
T3 sequence (P06493 whole entry): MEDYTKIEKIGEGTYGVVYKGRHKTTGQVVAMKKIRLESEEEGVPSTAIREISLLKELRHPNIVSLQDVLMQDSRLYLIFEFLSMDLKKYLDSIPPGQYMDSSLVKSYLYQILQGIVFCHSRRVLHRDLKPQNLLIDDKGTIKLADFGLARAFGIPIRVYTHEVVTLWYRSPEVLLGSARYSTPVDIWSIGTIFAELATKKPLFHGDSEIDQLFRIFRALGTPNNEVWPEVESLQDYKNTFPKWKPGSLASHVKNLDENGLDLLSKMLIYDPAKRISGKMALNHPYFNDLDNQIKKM
T3 sequence (P14635 whole entry partner): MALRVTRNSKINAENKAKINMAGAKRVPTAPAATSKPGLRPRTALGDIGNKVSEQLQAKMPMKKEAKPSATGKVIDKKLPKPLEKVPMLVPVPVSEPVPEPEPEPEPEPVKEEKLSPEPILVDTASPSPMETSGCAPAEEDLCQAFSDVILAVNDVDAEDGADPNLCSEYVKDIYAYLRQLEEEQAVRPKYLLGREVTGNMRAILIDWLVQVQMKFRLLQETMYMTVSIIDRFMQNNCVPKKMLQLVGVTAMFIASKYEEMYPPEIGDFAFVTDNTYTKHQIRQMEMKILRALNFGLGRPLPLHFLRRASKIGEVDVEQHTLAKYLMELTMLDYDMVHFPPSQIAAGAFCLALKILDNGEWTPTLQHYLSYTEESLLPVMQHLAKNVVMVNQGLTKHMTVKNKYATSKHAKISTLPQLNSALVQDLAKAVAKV

| IC50 [1, 8] [µM] | IC50 [2, 9] [µM] | IC50 [3, 10] [µM] | IC50 [1, 12] [µM] | IC50 [2, 13] [µM] | IC50 [3, 14] [µM] | SMILES | IC50 [4, 11] [µM] | IC50 ([5]; 3 days) [µM] | IC50 ([6]; 3 days) [µM] | IC50 ([7]; 3 days) [µM] | IC50 [4, 15] [µM] | IC50 ([5]; three days) [µM] | IC50 ([6]; three days) [µM] | IC50 ([7]; three days) [µM] |
| --- | --- | --- | --- | --- | --- | --- | --- | --- | --- | --- | --- | --- | --- | --- |
| 0.22 | > 50 | > 50 |  |  |  | O=C1NC(=O)c2ccc(I)cc2/C1=C/NCc1ccc(NC(=O)c2ccco2)c(O)c1 [Example 516, N-[2-Hydroxy-4-({[(Z)-(6-iodo-1,3-dioxo-2,3-dihydroisoquinolin-4(1H)-ylidene)methyl]amino}methyl)phenyl]-2-furamide] | 18.2 | 3.83 | 21.4 | 24.1 |  |  |  |  |
| 3 | 31 | > 50 |  |  |  | O=C1NC(=O)c2ccc(-c3ccc(CO)cc3)cc2C1=CNc1ccc(CN2CCCC2)cc1 [Example 840, 6-(4-Hydroxymethyl-phenyl)-4-[(4-pyrrolidin-1-ylmethyl-phenylamino)-methylene]-4H-isoquinoline-1,3-dione] | > 50 | 19 | > 50 | 40 |  |  |  |  |
|  |  |  | 14.4 | > 50 | > 50 | CN(C)CCCN(C)c1ccc(N/C=C2\C(=O)NC(=O)c3ccc(Br)cc32)cc1 [Example 275, (4Z)-6-Bromo-4-[({4-[[3-(dimethylamino)propyl](methyl)amino]phenyl}amino)methylene]isoquinoline-1,3(2H,4H)-dione] |  |  |  |  | 10 | 4.2 | 8.6 | 5.3 |
|  |  |  | 4.5 | 18.5 | 3.1 | O=C1NC(=O)c2ccc(Br)cc2/C1=C/NCc1ccc(O)c(O)c1O [Example 175] |  |  |  |  | > 50 | 28 | > 50 | > 50 |
| 0.28 | > 50 | > 50 |  |  |  | CN1CCN(c2ccc(NC=C3C(=O)NC(=O)c4ccc(-c5ccc(C=CC(=O)O)cc5)cc43)cc2)CC1 [Example 698, 3-[4-(4-{[4-(4-Methyl-piperazin-1-yl)-phenylamino]-methylene}-1,3-dioxo-1,2,3,4-tetrahydro-isoquinolin-6-yl)-phenyl]-acrylic acid] | 48.1 | 46.3 | > 50 | > 50 |  |  |  |  |
|  |  |  | 14.7 | > 50 | > 50 | O=C1NC(=O)c2ccc(Br)cc2/C1=C/NCCCN1CCCC1 [Example 309, (Z)-6-Bromo-4-((3-(pyrrolidin-1-yl)propylamino)methylene)isoquinoline-1,3(2H,4H)-dione] |  |  |  |  | 26 | 26 | 15 | 20 |
| 0.74 | 31.1 | > 50 |  |  |  | O=C1NC(=O)c2ccc(-c3cccc(Cl)c3)cc2C1=CNCc1ccc(O)c(O)c1 [Example 779, 6-(3-Chloro-phenyl)-4-[(3,4-dihydroxy-benzylamino)-methylene]-4H-isoquinoline-1,3-dione] | 20.3 | 15 | 14.1 | 12.7 |  |  |  |  |
|  |  |  | 0.7 | > 50 | > 50 | CCOC[C@@H]1CCCN1Cc1ccc(N/C=C2\C(=O)NC(=O)c3ccc(I)cc32)cc1 [Example 411, 4-{[4-(2-Ethoxymethyl-pyrrolidin-1-ylmethyl)-phenylamino]-methylene}-6-iodo-4H-isoquinoline-1,3-dione] | 0.45 | 3.8 | 3.5 | 1.6 |  |  |  |  |
|  |  |  | 1.9 | 2.8 | 15.1 | CONCCCc1ccc(N/C=C2\C(=O)NC(=O)c3ccc(Br)cc32)cc1 [Example 274, (4Z)-6-Bromo-4-[({4-[3-(methoxyamino)propyl]phenyl}amino)methylene]isoquinoline-1,3(2H,4H)-dione] |  |  |  |  | 12 | 9.5 | 12.5 | 10.3 |
